According to ChEMBL document CHEMBL5634087, “Novel 5-aminopyrazoles endowed with anti-angiogenetic properties: Design, synthesis and biological evaluation” (Eur J Med Chem, 2023):
Active and inactive are the calls of the source. The calls are words filed in the database; no cut-off is given here.

Columns and labels:
[1] = Cytotoxicity against human GM06114 cells assessed as growth rate at 10 uM incubated for 48 hrs by MTT assay relative to control; assay type: toxicity, cell-based; details: gm06114, 48 h
HeLa = assay: Antiproliferative activity against human HeLa cells assessed as growth rate at 10 uM incubated for 48 hrs by MTT assay relative to control; assay type: functional; details: read-out: Activity
A549 = assay: Antiproliferative activity against human A549 cells assessed as growth rate at 10 uM incubated for 48 hrs by MTT assay relative to control; assay type: functional; details: read-out: Activity
HUVEC [2] = assay: Antiangiogenic activity in confluent VEGF stimulated HUVEC cells assessed as relative cell migration rate at 20 uM incubated for 48 hrs by Hoechst 33342 staining based wound healing assay relative to control; assay type: functional, Homo sapiens
HepG2 = assay: Antiproliferative activity against human HepG2 cells assessed as growth rate at 10 uM incubated for 48 hrs by MTT assay relative to control; assay type: functional; details: read-out: Activity
[3] = target: Mitogen-activated protein kinase; ERK1/ERK2 (Homo sapiens) (UniProt P27361+P28482); assay: Inhibition of ERK1/2 phosphorylation in serum starved bFGF stimulated HFF cells assessed as residual phosphorylated ERK1/2 level at 20 uM preincubated for 10 mins followed by bFGF addition and measured after 20 mins by Western blotting analysis relative to control; assay type: cell-based; details: time 30.0 min
HFF [4] = assay: Antiangiogenic activity in confluent HFF cells assessed as inhibition of cell migration at 20 uM incubated for 24 to 48 hrs by Hoechst 33342 staining based wound healing assay; assay type: functional; details: Homo sapiens, time 24-48 hrs
SK-OV-3 = assay: Antiproliferative activity against human SK-OV-3 cells assessed as growth rate at 10 uM incubated for 48 hrs by MTT assay relative to control; assay type: functional; details: read-out: Activity
SK-BR-3 = assay: Antiproliferative activity against human SK-BR-3 cells assessed as growth rate at 10 uM incubated for 48 hrs by MTT assay relative to control; assay type: functional; details: read-out: Activity
MCF7 = assay: Antiproliferative activity against human MCF7 cells assessed as growth rate at 10 uM incubated for 48 hrs by MTT assay relative to control; assay type: functional; details: read-out: Activity
SK-MEL-28 = assay: Antiproliferative activity against human SK-MEL-28 cells assessed as growth rate at 10 uM incubated for 48 hrs by MTT assay relative to control; assay type: functional; details: read-out: Activity
MDA-MB-231 = assay: Antiproliferative activity against human MDA-MB-231 cells assessed as growth rate at 10 uM incubated for 48 hrs by MTT assay relative to control; assay type: functional; details: read-out: Activity
HUVEC [5] = assay: Antiangiogenic activity in confluent VEGF stimulated HUVEC cells assessed as relative cell migration rate at 20 uM incubated for 24 hrs by Hoechst 33342 staining based wound healing assay relative to control; assay type: functional, Homo sapiens
[6] = target: RAC-alpha serine/threonine-protein kinase (Homo sapiens) (UniProt P31749); assay: Inhibition of AKT phosphorylation in serum starved VEGF stimulated HUVEC cells at 20 uM preincubated for 10 mins followed by VEGF addition and measured after 20 mins by Western blotting analysis relative to control; assay type: cell-based; details: time 30.0 min
HUVEC [7] = assay: Antiangiogenic activity in confluent VEGF stimulated HUVEC cells assessed as inhibition of cell migration at 20 uM incubated for 24 to 48 hrs by Hoechst 33342 staining based wound healing assay; assay type: functional; details: Homo sapiens, time 24-48 hrs
HFF [8] = assay: Antiangiogenic activity in confluent HFF cells assessed as relative migration rate at 1 uM incubated for 24 hrs by Hoechst 33342 staining based wound healing assay relative to control; assay type: functional, Homo sapiens
HFF [9] = assay: Antiangiogenic activity in confluent HFF cells assessed as relative migration rate at 1 uM incubated for 48 hrs by Hoechst 33342 staining based wound healing assay relative to control; assay type: functional, Homo sapiens
[10] = target: RAC-alpha serine/threonine-protein kinase (Homo sapiens) (UniProt P31749); assay: Inhibition of AKT phosphorylation in serum starved bFGF stimulated HFF cells at 20 uM preincubated for 10 mins followed by bFGF addition and measured after 20 mins by Western blotting analysis; assay type: cell-based; details: time 30.0 min
[11] = target: RAC-alpha serine/threonine-protein kinase (Homo sapiens) (UniProt P31749); assay: Inhibition of AKT phosphorylation in serum starved VEGF stimulated HUVEC cells at 20 uM preincubated for 10 mins followed by VEGF addition and measured after 20 mins by Western blotting analysis; assay type: cell-based; details: time 30.0 min
HUVEC [12] = assay: Antiangiogenic activity in confluent VEGF stimulated HUVEC cells assessed as inhibition of cell migration at 20 uM incubated for 48 hrs by Hoechst 33342 staining based wound healing assay; assay type: functional; details: Homo sapiens

Chain of RAC-alpha serine/threonine-protein kinase (Homo sapiens) (P31749 whole entry): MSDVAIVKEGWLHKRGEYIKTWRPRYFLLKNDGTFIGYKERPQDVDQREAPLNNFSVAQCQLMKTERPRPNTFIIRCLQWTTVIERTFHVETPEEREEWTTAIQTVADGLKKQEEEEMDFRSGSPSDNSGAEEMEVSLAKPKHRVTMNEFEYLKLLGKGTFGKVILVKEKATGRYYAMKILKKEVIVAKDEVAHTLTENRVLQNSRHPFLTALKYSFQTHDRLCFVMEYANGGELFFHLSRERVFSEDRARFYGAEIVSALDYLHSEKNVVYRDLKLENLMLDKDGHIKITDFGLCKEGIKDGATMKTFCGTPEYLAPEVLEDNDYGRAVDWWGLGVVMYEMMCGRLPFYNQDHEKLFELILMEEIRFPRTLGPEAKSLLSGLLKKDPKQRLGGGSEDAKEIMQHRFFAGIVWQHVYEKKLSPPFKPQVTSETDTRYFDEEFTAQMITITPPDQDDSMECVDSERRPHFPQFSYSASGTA
Chain of Mitogen-activated protein kinase; ERK1/ERK2 (Homo sapiens) (P27361 whole entry, looked up): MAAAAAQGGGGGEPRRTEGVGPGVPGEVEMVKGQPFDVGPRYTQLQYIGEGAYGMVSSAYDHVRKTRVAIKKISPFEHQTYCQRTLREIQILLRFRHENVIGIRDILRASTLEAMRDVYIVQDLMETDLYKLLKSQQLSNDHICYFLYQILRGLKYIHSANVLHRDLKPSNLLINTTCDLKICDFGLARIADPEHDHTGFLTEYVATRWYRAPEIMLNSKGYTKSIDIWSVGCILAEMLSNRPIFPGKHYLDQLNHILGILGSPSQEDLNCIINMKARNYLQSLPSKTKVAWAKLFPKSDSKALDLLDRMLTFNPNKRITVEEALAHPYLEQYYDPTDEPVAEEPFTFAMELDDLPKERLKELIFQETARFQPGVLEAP
Chain of Mitogen-activated protein kinase; ERK1/ERK2 (Homo sapiens) (P28482 whole entry, looked up): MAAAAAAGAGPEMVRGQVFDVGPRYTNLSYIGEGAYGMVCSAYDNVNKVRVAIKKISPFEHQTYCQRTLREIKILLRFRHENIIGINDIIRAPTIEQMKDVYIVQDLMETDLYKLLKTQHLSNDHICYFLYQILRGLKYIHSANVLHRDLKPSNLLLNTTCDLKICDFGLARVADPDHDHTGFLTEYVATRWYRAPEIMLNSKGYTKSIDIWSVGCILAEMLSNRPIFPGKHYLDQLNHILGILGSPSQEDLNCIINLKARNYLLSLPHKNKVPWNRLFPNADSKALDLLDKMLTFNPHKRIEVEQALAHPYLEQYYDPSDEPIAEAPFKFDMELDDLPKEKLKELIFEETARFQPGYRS

Row | SMILES | Activity [1] [%] | growth at 10 µM (HeLa) [%] | growth at 10 µM (A549) [%] | Activity (HUVEC [2]) [%] | growth at 10 µM (HepG2) [%] | Activity [3] [%] | Activity (HFF [4]) | growth at 10 µM (SK-OV-3) [%] | growth at 10 µM (SK-BR-3) [%] | growth at 10 µM (MCF7) [%] | growth at 10 µM (SK-MEL-28) [%] | growth at 10 µM (MDA-MB-231) [%] | Activity (HUVEC [5]) [%] | inhibition [6] [%] | Activity (HUVEC [7]) | Activity (HFF [8]) [%] | Activity (HFF [9]) [%] | inhibition [10] | inhibition [11] | Activity (HUVEC [12])
1 | CCOC(=O)c1c(Nc2ccc(Cl)cc2)nn(CC(OC(=O)Nc2cccc(C(F)(F)F)c2)c2ccccc2)c1N (stereo not given) | 131.1 | 65.9 | 89.2 | >50 | 120 | > 70 | inactive | 122 | 124 | 128 | 112 | 121 | >50 |  |  |  |  |  |  | 
2 | Cc1nc(Nc2ncc(C(=O)Nc3c(C)cccc3Cl)s2)cc(N2CCN(CCO)CC2)n1 [DASATINIB ANHYDROUS] |  |  |  |  |  |  |  |  |  |  |  |  |  | 24.1 | inactive | 27.31 | 27.32 |  |  | 
3 | CCCCC(O)Cn1nc(Nc2ccc(Cl)cc2)c(C(=O)OCC)c1N (stereo not given) | 93.96 | 104 | 130 |  | 108 | > 70 | Active | 132 | 114 | 145 | 115 | 137 |  |  | inactive |  |  | inactive | inactive | 
4 | CCCCC(O)Cn1nc(Nc2ccccc2Cl)c(C(=O)OCC)c1N (stereo not given) | 92.72 | 104 | 138 |  | 102 | > 70 | Active | 125 | 103 | 140 | 109 | 126 | 47.74 |  |  |  |  | Active |  | inactive
